Among the data in ChEMBL document CHEMBL1154467, “QSAR study about ATP-sensitive potassium channel activation of cromakalim analogues using CP-MLR approach” (Eur J Med Chem, 2008) are pED50 values, retold here.

The target of the experiment is ATP-binding cassette sub-family C member 9 (Rattus norvegicus) (UniProt Q63563). Nature of the experiment: […] of SUR2A/kir6.2 channel in Wistar rat thoracic aorta assessed as relaxation of Kcl-induced contraction. The experiment is classed as tissue-based.
Sequence of ATP-binding cassette sub-family C member 9 (Rattus norvegicus) (Q63563 whole entry): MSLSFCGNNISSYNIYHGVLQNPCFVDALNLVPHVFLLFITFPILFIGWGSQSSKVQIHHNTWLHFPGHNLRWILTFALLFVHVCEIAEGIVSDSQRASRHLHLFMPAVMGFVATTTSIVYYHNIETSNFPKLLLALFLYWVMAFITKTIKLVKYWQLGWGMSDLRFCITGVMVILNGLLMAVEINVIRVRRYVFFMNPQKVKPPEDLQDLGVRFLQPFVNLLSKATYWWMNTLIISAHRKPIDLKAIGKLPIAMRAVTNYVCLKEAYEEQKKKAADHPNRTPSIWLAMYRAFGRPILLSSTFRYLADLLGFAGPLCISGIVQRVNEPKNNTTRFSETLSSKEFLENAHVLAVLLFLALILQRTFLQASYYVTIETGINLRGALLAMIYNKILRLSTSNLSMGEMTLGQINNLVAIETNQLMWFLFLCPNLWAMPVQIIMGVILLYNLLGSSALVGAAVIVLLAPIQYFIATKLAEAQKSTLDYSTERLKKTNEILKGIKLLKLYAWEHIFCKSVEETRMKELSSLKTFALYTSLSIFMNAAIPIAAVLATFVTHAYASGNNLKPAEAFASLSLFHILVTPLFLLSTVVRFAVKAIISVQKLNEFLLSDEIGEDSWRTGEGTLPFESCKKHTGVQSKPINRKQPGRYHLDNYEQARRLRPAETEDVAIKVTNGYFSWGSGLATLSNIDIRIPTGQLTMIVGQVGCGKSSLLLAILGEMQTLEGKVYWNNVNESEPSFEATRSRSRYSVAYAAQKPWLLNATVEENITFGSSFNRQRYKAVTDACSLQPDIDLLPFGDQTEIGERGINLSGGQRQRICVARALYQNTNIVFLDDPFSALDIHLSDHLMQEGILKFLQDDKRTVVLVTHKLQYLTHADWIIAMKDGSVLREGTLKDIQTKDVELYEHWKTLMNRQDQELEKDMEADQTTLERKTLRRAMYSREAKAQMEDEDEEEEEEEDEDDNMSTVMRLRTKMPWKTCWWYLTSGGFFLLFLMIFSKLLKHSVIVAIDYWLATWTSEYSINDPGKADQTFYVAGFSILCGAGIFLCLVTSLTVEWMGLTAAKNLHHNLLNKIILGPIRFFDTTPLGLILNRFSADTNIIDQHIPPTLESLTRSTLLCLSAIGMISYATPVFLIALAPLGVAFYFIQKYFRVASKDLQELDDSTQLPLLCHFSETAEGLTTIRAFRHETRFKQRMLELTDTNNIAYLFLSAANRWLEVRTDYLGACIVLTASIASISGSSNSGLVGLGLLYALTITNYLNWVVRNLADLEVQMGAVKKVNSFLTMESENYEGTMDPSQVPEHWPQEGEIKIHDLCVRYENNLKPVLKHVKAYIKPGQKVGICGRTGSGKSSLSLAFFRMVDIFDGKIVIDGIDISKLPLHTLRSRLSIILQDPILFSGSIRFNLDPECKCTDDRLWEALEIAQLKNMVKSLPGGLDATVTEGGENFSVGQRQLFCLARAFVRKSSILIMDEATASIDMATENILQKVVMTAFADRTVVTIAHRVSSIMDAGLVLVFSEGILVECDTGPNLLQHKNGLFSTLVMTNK
As for `CC1(C)CC(NC(=O)NCc2ccccc2)c2cc(Br)ccc2O1` (configuration not stated), the pED50 is below 3.52. In the case of `CC(C)NC(=S)NC1CC(C)(C)Oc2ccc(Cl)cc21` (configuration not stated) it was 4.96; in that of `CC(C)NC(=S)NC1CC(C)(C)Oc2ccc(Br)cc21` (configuration not stated), 5.06; in that of `CCOC(=O)NC1CC(C)(C)Oc2ccc(F)cc21` (configuration not stated), 4.14. In the case of `CC1(C)CC(NC(=S)NCc2ccccc2)c2cc(F)ccc2O1` (configuration not stated) it was 5.37.

Regarding `CCOC(=O)NC1CC(C)(C)Oc2ccc(Br)cc21` (configuration not stated), the pED50 was 4.59. In the case of `CC(=O)NC1CC(C)(C)Oc2ccc(Cl)cc21` (configuration not stated) it was 5.18; in that of `CCNC(=O)NC1CC(C)(C)Oc2ccc(F)cc21` (configuration not stated), 4.37; in that of `CC(C)NC(=S)NC1CC(C)(C)Oc2ccc(F)cc21` (configuration not stated), 4.73. In the case of `Cc1ccc(S(=O)(=O)NC(=O)NC2CC(C)(C)Oc3ccc(Cl)cc32)cc1` (configuration not stated), the pED50 was found to be 4.2. Then `CC(=O)NC1CC(C)(C)Oc2ccc(F)cc21` (configuration not stated), with 4.33; and `CC(C)NC(=O)NC1CC(C)(C)Oc2ccc(Br)cc21` (configuration not stated), with below 3.52. Take `CC(=O)NC1CC(C)(C)Oc2ccc(Br)cc21` (configuration not stated): the pED50 was 5.19. Then `CCNC(=S)NC1CC(C)(C)Oc2ccc(Cl)cc21` (configuration not stated), with 5.09. Then `CCOC(=O)NC1CC(C)(C)Oc2ccc(Cl)cc21` (configuration not stated), with 4.42; and `CC1(C)CC(NC(=O)NCc2ccccc2)c2cc(Cl)ccc2O1` (configuration not stated), with 4.82. Turning to `CC1(C)CC(NC(=S)NCc2ccccc2)c2cc(Br)ccc2O1` (configuration not stated), the pED50 came to 4.61.

In the case of `CC1(C)CC(NC(=S)NCc2ccccc2)c2cc(Cl)ccc2O1` (configuration not stated), the pED50 came out at 4.7.

As for `CCNC(=O)NC1CC(C)(C)Oc2ccc(Cl)cc21` (configuration not stated), the pED50 was 5.17. As for `CC(C)NC(=O)NC1CC(C)(C)Oc2ccc(Cl)cc21` (configuration not stated), the pED50 is 3.84. For `CCNC(=S)NC1CC(C)(C)Oc2ccc(Br)cc21` (configuration not stated), the pED50 came to 5.43. Then `CC1(C)CC(NC(=O)NS(=O)(=O)c2ccc(Cl)cc2)c2cc(Cl)ccc2O1` (configuration not stated), with 4.29; and `CCNC(=O)NC1CC(C)(C)Oc2ccc(Br)cc21` (configuration not stated), with 5.12. For the compound `CC1(C)CC(NC(=O)NS(=O)(=O)c2ccccc2)c2cc(Cl)ccc2O1` (configuration not stated), the pED50 is 3.68. Then `CC1(C)Oc2ccc(C#N)cc2C(N2CCCC2=O)C1O` (racemic), with 6.89; and `CC(C)NC(=O)NC1CC(C)(C)Oc2ccc(F)cc21` (configuration not stated), with 3.96. In the case of `CCNC(=S)NC1CC(C)(C)Oc2ccc(F)cc21` (configuration not stated) it was 4.75.
